Here are results for one cell line from the supplement of paper PMC10307832.

Holding throughout (experiment): relative viability (nuclei count vs DMSO), 5 days (fraction); higher = more cells survive
Compound in the assay “TPCA-1 + Foretinib”: C1=CC(=CC=C1C2=CC(=C(S2)NC(=O)N)C(=O)N)F [TPCA-1] + COc1cc2c(Oc3ccc(NC(=O)C4(C(=O)Nc5ccc(F)cc5)CC4)cc3F)ccnc2cc1OCCCN1CCOCC1 [Foretinib] (partner 0.25 µM)
In outline:
(§1)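 Lung cancer cell lines, seeded in 1536-well plates, were treated the following day by pin tool with a single drug or with five library-drug doses (not always all listed) in √10 steps on top of a fixed anchor-drug dose. Cells were fixed and nuclei stained in one step after 5 days, and nuclei were counted. Relative viability is the nuclei count for treated wells divided by that for vehicle wells, reported as medians of duplicate plates.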

Compound in the assay “TPCA-1 + Linsitinib”: C1=CC(=CC=C1C2=CC(=C(S2)NC(=O)N)C(=O)N)F [TPCA-1] + C[C@]1(O)C[C@@H](c2nc(-c3ccc4ccc(-c5ccccc5)nc4c3)c3c(N)nccn32)C1 [Linsitinib] (partner 1 µM)
In outline:
as §1

Compound in assay [1]: C[C@]12O[C@H](C[C@]1(O)CO)n1c3ccccc3c3c4c(c5c6ccccc6n2c5c31)CNC4=O [Lestaurtinib] + Cc1cc(Nc2cc(N3CCN(C)CC3)nc(Sc3ccc(NC(=O)C4CC4)cc3)n2)n[nH]1 [Tozasertib] (partner 0.1 µM)
Put shortly:
as §1

Compound in the assay “Lestaurtinib + Alpelisib”: C[C@]12O[C@H](C[C@]1(O)CO)n1c3ccccc3c3c4c(c5c6ccccc6n2c5c31)CNC4=O [Lestaurtinib] + Cc1nc(NC(=O)N2CCC[C@H]2C(N)=O)sc1-c1ccnc(C(C)(C)C(F)(F)F)c1 [Alpelisib] (partner 2 µM)
Put shortly:
as §1

For UMC-11, the relative viability with TPCA-1 + Foretinib (first compound 0.04 µM) was determined as 1.16; with TPCA-1 + Foretinib (first compound 0.1265 µM), 1.02; with TPCA-1 + Foretinib (first compound 0.4 µM) it was 1.04; in the assay with TPCA-1 + Foretinib (first compound 1.265 µM) it was 0.925; in the assay with TPCA-1 + Foretinib (first compound 4 µM), 0.387; in the assay with TPCA-1 + Linsitinib (first compound 0.04 µM), 1.03. The relative viability is 1 with TPCA-1 + Linsitinib (first compound 0.1265 µM); 1.04 with TPCA-1 + Linsitinib (first compound 0.4 µM); 0.918 with TPCA-1 + Linsitinib (first compound 1.265 µM); 0.615 with TPCA-1 + Linsitinib (first compound 4 µM); 0.21 in assay [1] (first compound 0.005 µM); 0.206 in assay [1] (first compound 0.01581 µM). For the same cell line, the relative viability in assay [1] (first compound 0.05 µM) amounted to 0.217; in assay [1] (first compound 0.1581 µM) it was 0.18; in assay [1] (first compound 0.5 µM), 0.179; in the assay with Lestaurtinib + Alpelisib (first compound 0.005 µM), 0.967; with Lestaurtinib + Alpelisib (first compound 0.01581 µM), 0.968; in the assay with Lestaurtinib + Alpelisib (first compound 0.05 µM), 0.471. The results for the relative viability with Lestaurtinib + Alpelisib (first compound 0.1581 µM) and in the assay with Lestaurtinib + Alpelisib (first compound 0.5 µM) were 0.297 and 0.156, respectively.
